Experimental data from patent US20260355196A1, “INHIBITORS AND DEGRADERS OF PIP4K PROTEIN” (Larkspur Biosciences, Inc., priority 2023, published 2026).

Biological target: T1, PIP4K2C (Homo sapiens, UniProt Q8TBX8)
T1 sequence (Q8TBX8 1-421): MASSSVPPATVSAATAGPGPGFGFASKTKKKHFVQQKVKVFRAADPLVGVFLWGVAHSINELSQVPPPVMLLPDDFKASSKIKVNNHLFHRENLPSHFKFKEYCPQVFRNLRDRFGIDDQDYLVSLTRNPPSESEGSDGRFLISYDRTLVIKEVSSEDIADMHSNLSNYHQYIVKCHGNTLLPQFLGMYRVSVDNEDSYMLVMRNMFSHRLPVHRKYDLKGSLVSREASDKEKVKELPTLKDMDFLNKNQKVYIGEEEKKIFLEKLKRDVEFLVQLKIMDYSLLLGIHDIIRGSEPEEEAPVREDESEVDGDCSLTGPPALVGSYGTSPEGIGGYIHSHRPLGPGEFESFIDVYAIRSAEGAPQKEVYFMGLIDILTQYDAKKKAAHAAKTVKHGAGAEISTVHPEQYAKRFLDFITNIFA
Assay: HiBiT PIP4K2C degradation assay in MOLT-4 cells (endogenous PIP4K2C C-terminally tagged with HiBiT)
Type: cell-based
Set-up: untagged in primary human PBMCs and monocyte-derived dendritic cells
Conditions: 6 hours of incubation time, rather than 24 hours; MOLT-4, top concentration 10 micromolar; read-out: HiBIT-degradation MOLT4 PIP4k2C DC50 (6 hours, marked *)
Outline: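 Luminescent HiBiT lytic readout of residual PIP4K2C-HiBiT (CRISPR knock-in, MOLT-4, phenol red-free RPMI-1640 + 10% FBS). Cells exposed 6 or 24 h at 37 C to compound, top 10 micromolar, 3-fold, 10 points, duplicate. Hill fit (Levenberg-Marquardt) gives DC50.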

Structure (SMILES) | DC50 [nM]
O=C1CCC(Nc2ccc(N3CCN([C@H]4CC[C@H](C(=O)N[C@H]5CC[C@H](Nc6ncc(F)c(-c7cccc(N8CCOCC8)c7)n6)CC5)CC4)CC3)c(F)c2)C(=O)N1 (stereo partly drawn) [Compound 605, trans-(1r,4R)-4-(4-(4-((2,6-dioxopiperidin-3-yl)amino)-2-fluorophenyl)piperazin-1-yl)-N-((1r,4R)-4-((5-fluoro-4-(3-morpholinophenyl)pyrimidin-2-yl)amino)cyclohexyl)cyclohexane-1-carboxamide] | < 500
O=C1CCC(Nc2ccc(C3CCN([C@H]4CC[C@H](NC(=O)[C@H]5CC[C@H](Nc6ncc(F)c(-c7cccc(C(=O)N8CC[C@H](O)C8)c7)n6)CC5)CC4)CC3)c(F)c2)C(=O)N1 (stereo partly drawn) [Compound 510, trans-N-(trans-4-(4-(4-((2,6-dioxopiperidin-3-yl)amino)-2-fluorophenyl)piperidin-1-yl)cyclohexyl)-4-((5-fluoro-4-(3-((S)-3-hydroxypyrrolidine-1-carbonyl)phenyl)pyrimidin-2-yl)amino)cyclohexane-1-carboxamide] | < 500
Cc1ccn(-c2cccc(-c3nc(N[C@H]4CC[C@H](C(=O)N5CCC(CN6CCN(c7ccc(NC8CCC(=O)NC8=O)cc7F)CC6)CC5)CC4)ncc3F)c2)c(=O)c1 (stereo partly drawn) [Compound 471, trans-3-((3-fluoro-4-(4-((1-(4-((5-fluoro-4-(3-(4-methyl-2-oxopyridin-1 (2H)-yl)phenyl)pyrimidin-2-yl)amino)cyclohexane-1-carbonyl)piperidin-4-yl)methyl)piperazin-1-yl)phenyl)amino)piperidine-2,6-dione] | < 500
Cn1nc([C@H]2CCC(=O)NC2=O)c2ccc(C3CCN(CC4CCN(C(=O)[C@H]5CC[C@H](Nc6ncc(F)c(-c7cccc(-n8ccccc8=O)c7)n6)CC5)CC4)CC3)cc21 (single isomer, unassigned) [Compound 422] | < 500
O=C1CCC(Nc2ccc(C3CCN([C@H]4CC[C@H](C(=O)N[C@H]5CC[C@H](Nc6ncc(F)c(-c7cccc(N8CCCCC8)c7)n6)CC5)CC4)CC3)c(F)c2)C(=O)N1 (stereo partly drawn) [Compound 556, trans-(1r,4R)-4-(4-(4-((2,6-dioxopiperidin-3-yl)amino)-2-fluorophenyl)piperidin-1-yl)-N-((1r,4R)-4-((5-fluoro-4-(3-(piperidin-1-yl)phenyl)pyrimidin-2-yl)amino)cyclohexyl)cyclohexane-1-carboxamide] | < 500
O=C1CC[C@@H](Nc2ccc(N3CCC(N4CCC(NC(=O)[C@H]5CC[C@H](Nc6ncc(F)c(-c7cccc(-n8ccccc8=O)c7)n6)CC5)CC4)CC3)c(F)c2)C(=O)N1 [Compound 440, trans-N-(1′-(4-(((R)-2,6-dioxopiperidin-3-yl)amino)-2-fluorophenyl)-[1,4′-bipiperidin]-4-yl)-4-((5-fluoro-4-(3-(2-oxopyridin-1(2H)-yl)phenyl)pyrimidin-2-yl)amino)cyclohexane-1-carboxamide] | < 500
O=C1CC[C@@H](Nc2ccc(N3CCN(CC4(O)CCN(C(=O)[C@H]5CC[C@H](Nc6ncc(F)c(-c7cccc(-n8ccccc8=O)c7)n6)CC5)CC4)CC3)c(F)c2)C(=O)N1 (single isomer, unassigned) [Compound 439] | < 500
O=C1CCC(Nc2ccc(N3CCN(CC4(F)CCN(C(=O)[C@H]5CC[C@H](Nc6ncc(F)c(-c7cccc(N8CCOCC8=O)c7)n6)CC5)CC4)CC3)c(F)c2)C(=O)N1 (stereo partly drawn) [Compound 530, trans-3-((3-fluoro-4-(4-((4-fluoro-1-(4-((5-fluoro-4-(3-(3-oxomorpholino)phenyl)pyrimidin-2-yl)amino)cyclohexane-1-carbonyl)piperidin-4-yl)methyl)piperazin-1-yl)phenyl)amino)piperidine-2,6-dione] | < 500

More lines, now with the values ahead:

DC50 [nM] | Structure (SMILES)
< 500 | O=C1CCC(Nc2ccc(N3CCN([C@H]4CC[C@H](NC(=O)[C@H]5CC[C@H](Nc6ncc(F)c(-c7cccc(C(=O)N8CC[C@H](O)C8)c7)n6)CC5)CC4)CC3)c(F)c2)C(=O)N1 (stereo partly drawn) [Compound 509, trans-N-(trans-4-(4-(4-((2,6-dioxopiperidin-3-yl)amino)-2-fluorophenyl)piperazin-1-yl)cyclohexyl)-4-((5-fluoro-4-(3-((S)-3-hydroxypyrrolidine-1-carbonyl)phenyl)pyrimidin-2-yl)amino)cyclohexane-1-carboxamide]
< 500 | O=C1CCC(Nc2ccc(C3CCN(C[C@H]4CC[C@H](COC(=O)N5CCC(Nc6ncc(F)c(-c7cccc(-c8ccccc8)c7)n6)CC5)CC4)CC3)c(F)c2)C(=O)N1 (stereo partly drawn) [Compound 640, trans-(4-((4-(4-((2,6-dioxopiperidin-3-yl)amino)-2-fluorophenyl)piperidin-1-yl)methyl)cyclohexyl)methyl 4-((4-([1,1′-biphenyl]-3-yl)-5-fluoropyrimidin-2-yl)amino)piperidine-1-carboxylate]
< 500 | O=C1CCC(Nc2ccc(C3CCN([C@H]4CC[C@H](NC(=O)[C@H]5CC[C@H](Nc6ncc(F)c(-c7ccnc(-n8ccccc8=O)c7)n6)CC5)CC4)CC3)c(F)c2)C(=O)N1 (stereo partly drawn) [Compound 696, trans-N-(trans-4-(4-(4-((2,6-dioxopiperidin-3-yl)amino)-2-fluorophenyl)piperidin-1-yl)cyclohexyl)-4-((5-fluoro-4-(2-oxo-2H-[1,2′-bipyridin]-4′-yl)pyrimidin-2-yl)amino)cyclohexane-1-carboxamide]
< 500 | O=C1CCC(Nc2ccc(N3CCN(CC4(F)CCN(C(=O)[C@H]5CC[C@H](Nc6ncc(F)c(-c7cccc(C8CC8)c7)n6)CC5)CC4)CC3)c(F)c2)C(=O)N1 (stereo partly drawn) [Compound 529, trans-3-((4-(4-((1-((1r,4r)-4-((4-(3-cyclopropylphenyl)-5-fluoropyrimidin-2-yl)amino)cyclohexane-1-carbonyl)-4-fluoropiperidin-4-yl)methyl)piperazin-1-yl)-3-fluorophenyl)amino)piperidine-2,6-dione]
< 500 | O=C1CCC(Nc2ccc(C3CCN([C@H]4CC[C@H](C(=O)N[C@H]5CC[C@H](Nc6ncc(F)c(-c7cccc(N8CCCCC8=O)c7)n6)CC5)CC4)CC3)c(F)c2)C(=O)N1 (single isomer, unassigned) [Compound 592]

Same assay, conditions: 24 hours incubation, MOLT-4, top concentration 10 micromolar; read-out: HiBIT-degradation MOLT4 PIP4k2C 24 hours DC50

DC50 [nM] | Structure (SMILES)
< 500 | O=C1CCC(N2Cc3cc(OC4CCN(C(=O)C5CCN(C(=O)C6CCC[C@@H](Nc7ncc(Cl)c(-c8cccc(-c9ccccc9)c8)n7)C6)CC5)CC4)ccc3C2=O)C(=O)N1 (stereo in doubt) [Compound 77, cis-3-(5-((1-(1-(3-((4-([1,1′-biphenyl]-3-yl)-5-chloropyrimidin-2-yl)amino)cyclohexane-1-carbonyl)piperidine-4-carbonyl)piperidin-4-yl)oxy)-1-oxoisoindolin-2-yl)piperidine-2,6-dione]
< 500 | O=C1CCC(N2Cc3cc(C4CCN(CC5CCN(CC(=O)N6CCC(Nc7ncc(Cl)c(-c8cccc(-c9ccccc9)c8)n7)CC6)CC5)CC4)ccc3C2=O)C(=O)N1 (stereo not shown) [Compound 50]
< 500 | O=C1CCC(n2c(=O)oc3cc(C4CCN(CC5CCN(C(=O)[C@H]6CC[C@H](Nc7ncc(F)c(-c8cccc(-n9ccccc9=O)c8)n7)CC6)CC5)CC4)ccc32)C(=O)N1 (stereo partly drawn) [Compound 323, trans-3-(6-(1-((1-(4-((5-fluoro-4-(3-(2-oxopyridin-1(2H)-yl)phenyl)pyrimidin-2-yl)amino)cyclohexane-1-carbonyl)piperidin-4-yl)methyl)piperidin-4-yl)-2-oxobenzo[d]oxazol-3 (2H)-yl)piperidine-2,6-dione]
< 500 | O=C1CCC(Nc2ccc(N3CCN(CC4CCN(CC(=O)N[C@H]5CC[C@H](Nc6ncc(F)c(-c7cccc(-n8ccccc8=O)c7)n6)CC5)CC4)CC3)c(F)c2)C(=O)N1 (stereo partly drawn) [Compound 326, trans-2-(4-((4-(4-((2,6-dioxopiperidin-3-yl)amino)-2-fluorophenyl)piperazin-1-yl)methyl)piperidin-1-yl)-N-(4-((5-fluoro-4-(3-(2-oxopyridin-1(2H)-yl)phenyl)pyrimidin-2-yl)amino)cyclohexyl)acetamide]
< 500 | Cn1nc(C2CCC(=O)NC2=O)c2ccc(N3CCC(N4CCC(CNC(=O)[C@H]5CCC[C@@H](Nc6ncc(F)c(-c7cccc(-n8ccccc8=O)c7)n6)C5)CC4)CC3)cc21 (relative stereo) [Compound 333, cis-N-((1′-(3-(2,6-dioxopiperidin-3-yl)-1-methyl-1H-indazol-6-yl)-[1,4′-bipiperidin]-4-yl)methyl)-3-((5-fluoro-4-(3-(2-oxopyridin-1(2H)-yl)phenyl)pyrimidin-2-yl)amino)cyclohexane-1-carboxamide]

Same assay, conditions: read-out: HiBIT-degradation MOLT4 PIP4k2C 24 hours DC50; 24 hours incubation, MOLT-4, top concentration 10 micromolar

DC50 [nM] | Structure (SMILES)
< 500 | O=C1CCC(Nc2ccc(C3CCN(C4CCN(CCC(=O)N[C@H]5CC[C@H](Nc6ncc(F)c(-c7cccc(-n8ccccc8=O)c7)n6)CC5)CC4)CC3)c(F)c2)C(=O)N1 (stereo partly drawn) [Compound 328, trans-3-(4-(4-((2,6-dioxopiperidin-3-yl)amino)-2-fluorophenyl)-[1,4′-bipiperidin]-1′-yl)-N-(4-((5-fluoro-4-(3-(2-oxopyridin-1(2H)-yl)phenyl)pyrimidin-2-yl)amino)cyclohexyl)propanamide]
